Data reported in the supplement of paper PMC10307832.

Assays:
Experiment in all cases: relative viability (nuclei count vs DMSO), 5 days (fraction); higher = more cells survive
VE-821 + Foretinib = compound: CS(=O)(=O)c1ccc(-c2cnc(N)c(C(=O)Nc3ccccc3)n2)cc1 [VE-821] + COc1cc2c(Oc3ccc(NC(=O)C4(C(=O)Nc5ccc(F)cc5)CC4)cc3F)ccnc2cc1OCCCN1CCOCC1 [Foretinib] (partner 0.25 µM)
Outline: (§1)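 Cells from lung cancer lines were seeded into 1536-well plates and, one day later, dosed by pin tool. Treatments were either a single drug or a fixed dose of an anchor drug with five library-drug doses (not always all listed) in √10 steps. After 5 days, nuclei were stained in a one-step fixation (final 0.05% Triton X-100, 1% formaldehyde, 1 ug/ml Hoechst) and counted on 4× images, and relative viability is the treated-to-vehicle nuclei ratio, as the median of duplicate plates.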

Ruxolitinib + Linsitinib = compound: N#CC[C@H](C1CCCC1)n1cc(-c2ncnc3[nH]ccc23)cn1 [Ruxolitinib] + C[C@]1(O)C[C@@H](c2nc(-c3ccc4ccc(-c5ccccc5)nc4c3)c3c(N)nccn32)C1 [Linsitinib] (partner 1 µM)
Outline: as §1

Ruxolitinib + Tozasertib = compound: N#CC[C@H](C1CCCC1)n1cc(-c2ncnc3[nH]ccc23)cn1 [Ruxolitinib] + Cc1cc(Nc2cc(N3CCN(C)CC3)nc(Sc3ccc(NC(=O)C4CC4)cc3)n2)n[nH]1 [Tozasertib] (partner 0.1 µM)
Outline: as §1

VE-821 + Linsitinib = compound: CS(=O)(=O)c1ccc(-c2cnc(N)c(C(=O)Nc3ccccc3)n2)cc1 [VE-821] + C[C@]1(O)C[C@@H](c2nc(-c3ccc4ccc(-c5ccccc5)nc4c3)c3c(N)nccn32)C1 [Linsitinib] (partner 1 µM)
Outline: as §1

Cell Line	relative viability (VE-821 + Foretinib; first compound 0.08 µM)	relative viability (VE-821 + Foretinib; first compound 0.253 µM)	relative viability (VE-821 + Foretinib; first compound 0.8 µM)	relative viability (VE-821 + Foretinib; first compound 2.53 µM)	relative viability (VE-821 + Foretinib; first compound 8 µM)	relative viability (Ruxolitinib + Linsitinib; first compound 0.08 µM)	relative viability (Ruxolitinib + Linsitinib; first compound 0.253 µM)	relative viability (Ruxolitinib + Linsitinib; first compound 0.8 µM)	relative viability (Ruxolitinib + Linsitinib; first compound 2.53 µM)	relative viability (Ruxolitinib + Linsitinib; first compound 8 µM)	relative viability (Ruxolitinib + Tozasertib; first compound 0.08 µM)	relative viability (Ruxolitinib + Tozasertib; first compound 0.253 µM)	relative viability (Ruxolitinib + Tozasertib; first compound 0.8 µM)	relative viability (Ruxolitinib + Tozasertib; first compound 2.53 µM)	relative viability (Ruxolitinib + Tozasertib; first compound 8 µM)	relative viability (VE-821 + Linsitinib; first compound 0.08 µM)	relative viability (VE-821 + Linsitinib; first compound 0.253 µM)	relative viability (VE-821 + Linsitinib; first compound 0.8 µM)	relative viability (VE-821 + Linsitinib; first compound 2.53 µM)	relative viability (VE-821 + Linsitinib; first compound 8 µM)
201T	1.09	1.17	0.784	0.968	0.6	1.1	1.15	1.19	1.21	1.22	1.11	1.19	1.17	1.21	1.11	0.975	0.941	0.956	0.968	0.818
A549	0.996	0.93	0.858	0.861	0.713	0.594	0.576	0.896	0.558	0.675	–	–	–	–	–	0.623	0.597	0.43	0.599	0.406
A-427	1.34	0.97	0.991	1.05	0.561	1.14	1.11	1.13	0.961	0.922	0.232	0.201	0.237	0.184	0.179	1.18	1.12	1.06	1.08	0.894
ABC-1	1.41	0.877	0.859	1.01	0.756	0.983	0.705	0.865	0.97	0.871	–	0.222	0.155	0.202	0.201	0.819	0.699	0.567	0.798	0.423
BEN	0.685	0.574	0.623	0.581	0.76	0.751	0.887	1.15	0.758	1.03	0.486	0.503	0.552	0.537	0.453	0.967	0.871	0.793	0.911	0.753
CAL-12T	1.27	1.09	1.01	0.976	0.92	0.819	0.744	0.853	0.614	0.7	0.348	0.412	0.344	0.313	0.312	0.94	0.805	0.725	0.891	0.956
COR-L23	1.09	0.974	0.915	1.27	0.917	0.919	0.92	0.95	0.833	0.671	0.204	0.217	0.204	0.192	0.146	0.958	0.897	1.16	0.964	0.719
COR-L 105	1.06	1.15	0.937	0.731	0.759	0.95	0.719	0.912	0.642	0.758	0.383	0.314	0.423	0.475	0.35	0.944	0.885	0.75	0.776	0.496
Calu-6	0.94	0.932	0.821	0.767	0.753	0.94	0.923	1.01	–	0.882	–	–	–	–	–	1	0.839	0.83	1.13	0.942
ChaGo-K-1	0.988	0.971	0.814	1	0.734	–	–	–	–	–	0.246	0.243	0.454	0.176	0.195	–	–	–	–	–
EBC-1	0.0973	0.103	0.0999	0.104	0.102	0.831	1.1	1.06	0.783	0.823	–	–	–	–	–	0.908	0.901	0.85	1.16	0.808
EKVX	0.801	0.673	0.574	0.874	0.582	0.876	0.897	0.966	0.893	0.813	0.392	0.439	0.463	0.282	0.443	1.2	0.893	0.643	0.932	0.681
EMC-BAC-2	1.05	0.944	0.856	1.05	0.949	0.799	0.822	0.87	0.744	0.66	0.292	0.288	0.279	0.262	0.236	0.881	0.817	0.849	0.852	0.841
EPLC-272H	0.803	0.747	0.804	0.692	0.341	1.26	1.12	1.31	1.19	1.25	0.25	0.407	0.241	0.345	0.264	1.28	0.928	1.22	1.6	1.11
H3255	0.883	0.843	0.913	0.91	0.857	0.464	0.887	1.17	0.706	0.86	0.612	0.568	0.841	0.56	0.682	1.08	1.05	0.914	1.06	0.982
HARA	1.06	0.888	0.798	0.812	0.574	0.983	1.01	1.03	0.912	0.815	0.113	0.111	0.112	0.107	0.119	1.03	1.02	0.931	0.972	0.702
HCC-15	1.16	1.1	1.1	1.27	0.98	0.855	0.849	0.855	0.842	0.737	0.406	0.434	0.519	0.481	0.421	1.01	0.816	0.954	0.961	0.889
HCC-44	–	–	–	–	–	0.664	0.739	0.66	0.51	0.395	0.953	1.11	1.15	0.804	0.761	0.72	0.685	0.485	0.81	0.769
HCC-78	0.577	0.524	0.539	0.628	0.569	0.419	0.296	0.437	0.372	0.414	0.512	0.45	0.414	0.55	0.5	0.626	0.575	0.404	0.477	0.328
HCC-366	0.942	0.922	0.815	0.271	0.153	0.595	0.401	0.647	0.535	0.541	0.117	0.113	0.192	0.0897	0.101	0.907	0.49	0.329	0.477	0.0616

Cell Line	relative viability (VE-821 + Foretinib; first compound 0.08 µM)	relative viability (VE-821 + Foretinib; first compound 0.253 µM)	relative viability (VE-821 + Foretinib; first compound 0.8 µM)	relative viability (VE-821 + Foretinib; first compound 2.53 µM)	relative viability (VE-821 + Foretinib; first compound 8 µM)	relative viability (Ruxolitinib + Linsitinib; first compound 0.08 µM)	relative viability (Ruxolitinib + Linsitinib; first compound 0.253 µM)	relative viability (Ruxolitinib + Linsitinib; first compound 0.8 µM)	relative viability (Ruxolitinib + Linsitinib; first compound 2.53 µM)	relative viability (Ruxolitinib + Linsitinib; first compound 8 µM)	relative viability (Ruxolitinib + Tozasertib; first compound 0.08 µM)	relative viability (Ruxolitinib + Tozasertib; first compound 0.253 µM)	relative viability (Ruxolitinib + Tozasertib; first compound 0.8 µM)	relative viability (Ruxolitinib + Tozasertib; first compound 2.53 µM)	relative viability (Ruxolitinib + Tozasertib; first compound 8 µM)	relative viability (VE-821 + Linsitinib; first compound 0.08 µM)	relative viability (VE-821 + Linsitinib; first compound 0.253 µM)	relative viability (VE-821 + Linsitinib; first compound 0.8 µM)	relative viability (VE-821 + Linsitinib; first compound 2.53 µM)	relative viability (VE-821 + Linsitinib; first compound 8 µM)
HCC-827	1.13	0.956	1.02	1.05	0.827	–	1.03	0.913	0.972	0.803	–	0.342	0.35	0.397	0.386	0.932	1.01	0.909	0.934	0.976
HOP-62	1.14	1.04	1.07	1.22	1.09	–	0.995	1.05	0.991	0.867	0.345	0.394	0.415	0.402	0.348	0.838	0.911	0.933	1.23	0.873
IA-LM	1.2	0.957	1.15	1.04	1.03	0.652	0.662	0.719	0.518	0.469	–	–	–	–	–	0.836	0.54	0.741	0.903	0.636
LC-2-ad	1.04	1.05	1.03	1.17	1.03	0.741	0.86	0.814	0.68	0.496	–	0.435	0.548	0.482	0.515	0.88	0.764	0.821	0.925	0.661
LCLC-97TM1	1.12	1.05	0.878	0.98	0.885	0.195	0.151	0.189	0.22	0.219	0.178	0.316	0.229	0.305	0.348	0.186	0.2	0.19	0.183	0.191
LCLC-103H	0.926	0.876	0.82	0.914	0.572	1.2	1.24	1.25	1.04	1.03	0.492	0.519	0.595	0.552	0.501	1.23	1.1	0.999	1.34	1.1
LK-2	1.5	1.46	1.05	1.37	1.14	0.459	0.715	0.722	0.36	0.765	0.162	0.199	0.168	0.166	0.171	0.583	0.595	0.662	0.705	0.501
LOU-NH91	0.982	0.946	0.86	0.986	0.928	0.663	0.895	1.14	0.895	0.872	–	0.627	0.744	0.65	0.632	0.94	0.949	0.989	1.04	0.898
NCI-H522	–	–	–	–	–	–	–	–	–	–	0.576	0.567	0.602	0.533	0.524	–	–	–	–	–
NCI-H1299	1.1	1.08	1.04	1	1	0.981	0.974	0.975	0.917	0.871	–	–	–	–	–	0.946	0.886	0.928	1.06	0.959
NCI-H1563	0.937	0.903	0.769	0.876	0.83	1.18	1.21	1.25	1.16	1.09	–	–	–	–	–	1.26	1.17	0.914	1.08	1.05
NCI-H1623	0.936	0.816	0.741	0.867	0.73	–	–	–	–	–	0.488	0.485	0.49	0.49	0.479	–	–	–	–	–
NCI-H1648	–	–	–	–	–	–	–	–	–	–	–	0.414	0.747	0.878	1.14	–	–	–	–	–
NCI-H1650	1.15	1.11	0.718	1.39	0.692	–	–	–	–	–	–	0.503	0.386	0.455	0.357	–	–	–	–	–
NCI-H1703	0.33	0.3	0.329	0.364	0.404	1.07	0.624	1.25	0.451	0.547	–	–	–	–	–	1.42	0.51	0.649	0.93	0.629
NCI-H1792	–	–	–	–	–	0.495	0.504	0.488	0.417	0.499	–	–	–	–	–	0.55	0.711	0.438	0.553	0.421
NCI-H2170	1.01	0.972	0.952	0.958	0.798	–	–	–	–	–	0.804	0.689	0.768	0.77	0.6	–	–	–	–	–
NCI-H2342	1.25	0.917	0.951	1.1	1	–	–	–	–	–	0.529	0.556	0.486	0.479	0.532	–	–	–	–	–
SW 900	0.848	0.997	0.836	0.916	0.681	–	–	–	–	–	0.581	0.649	0.499	0.534	0.625	–	–	–	–	–
